Measurements reported in ChEMBL document CHEMBL2074312, “Involvement of multispecific organic anion transporter, Oatp14 (Slc21a14), in the transport of thyroxine across the blood-brain barrier” (Endocrinology, 2004).

Each molecule was assayed against Solute carrier organic anion transporter family member 1C1 (assay: TP_TRANSPORTER: inhibition of L-T4 uptake in Oatp14-expressing HEK293 cells).
Format: functional, cell-based

Ki	Structure (SMILES)
0.27 µM	N[C@H](Cc1cc(I)c(Oc2cc(I)c(O)c(I)c2)c(I)c1)C(=O)O [DEXTROTHYROXINE]
53.1 µM	C[C@]12CC[C@@H]3c4ccc(OS(=O)(=O)O)cc4CC[C@H]3[C@@H]1CCC2=O [ESTRONE SULFURIC ACID]
293 µM	CCCN(CCC)S(=O)(=O)c1ccc(C(=O)O)cc1 [PROBENECID]
24.2 µM	N[C@@H](Cc1cc(I)c(Oc2ccc(O)c(I)c2)c(I)c1)C(=O)O [LIOTHYRONINE]
2.15 µM	O=C(O)Cc1cc(I)c(Oc2ccc(O)c(I)c2)c(I)c1 [TIRATRICOL]

Structure (SMILES)	Ki
C[C@]12CC[C@@H]3c4ccc(O)cc4CC[C@H]3[C@@H]1CC[C@@H]2O[C@@H]1O[C@H](C(=O)O)[C@@H](O)[C@H](O)[C@H]1O [ESTRADIOL 17B GLUCURONIDE]	> 100 µM
N[C@@H](Cc1ccc(Oc2cc(I)c(O)c(I)c2)c(I)c1)C(=O)O [REVERSE TRIIODOTHYRONINE]	0.91 µM
